This is an account of results in ChEMBL document CHEMBL1151141, “Antineoplastic agents, 162. Zephyranthes candida” (1990).

Values after ≈ are worked out from the molar mass of the structure shown.

This experiment concerns P388. Kind of experiment: Cytotoxicity against mouse P388 cells. Format: functional. Particulars: read-out: ED50 (the source's name).
As for `O=C1N[C@H]2[C@H](O)[C@H](O)[C@@H](O)C[C@H]2c2cc3c(c(O)c21)OCO3`, the EC50 was determined as 24 ng/mL (≈ 0.0776 µM). `O=C1N[C@H]2[C@H](O)[C@H](O)[C@@H](O)C[C@@H]2c2cc3c(c(O)c21)OCO3`: the EC50 amounted to 3.2 ng/mL (≈ 0.0103 µM). The value for `CC(=O)Oc1c2c(cc3c1C(=O)N[C@H]1[C@H](OC(C)=O)[C@H](OC(C)=O)[C@@H](OC(C)=O)C[C@H]31)OCO2` was 3.2 ng/mL (≈ 0.0067 µM).
